Results reported in ChEMBL document CHEMBL1137616, “Poorly soluble marketed drugs display solvation limited solubility” (J Med Chem, 2007).
Values after ≈ are worked out from the molar mass of the structure shown.

Experiment: Solubility by shake flask method

Q: Which Solubility does the source give for COc1ccc2c(c1)c(CC(=O)O)c(C)n2C(=O)c1ccc(Cl)cc1 [INDOMETHACIN] here?
A: 1.1333 µM (≈ 0.405 µg/mL)

Q: For Cc1c(Cl)cccc1Nc1ccccc1C(=O)O [TOLFENAMIC ACID], which Solubility is on record?
A: 0.0136 µM (≈ 0.00356 µg/mL)

Q: Which Solubility does the source give for COc1ccc(Cl)cc1C(=O)NCCc1ccc(S(=O)(=O)NC(=O)NC2CCCCC2)cc1 [GLYBURIDE] here?
A: 0.0891 µM (≈ 0.044 µg/mL)

Q: For COc1ccccc1OCCNCC(O)COc1cccc2[nH]c3ccccc3c12 (configuration not stated) [CARVEDILOL], which Solubility is on record?
A: 0.713 µM (≈ 0.29 µg/mL)

Q: With CCCSc1ccc2nc(NC(=O)OC)[nH]c2c1 [ALBENDAZOLE] as the compound, how does the Solubility read?
A: 0.983 µM (≈ 0.261 µg/mL)

Q: With CCC(C)n1ncn(-c2ccc(N3CCN(c4ccc(OCC5COC(Cn6cncn6)(c6ccc(Cl)cc6Cl)O5)cc4)CC3)cc2)c1=O (configuration not stated) [ITRACONAZOLE] as the compound, how does the Solubility read?
A: 0.0033 µM (≈ 0.00233 µg/mL)

Q: For COc1ccc(CCN2CCC(Nc3nc4ccccc4n3Cc3ccc(F)cc3)CC2)cc1 [ASTEMIZOLE], which Solubility is on record?
A: 0.0668 µM (≈ 0.0306 µg/mL)

Q: For CCC1=C(C)CN(C(=O)NCCc2ccc(S(=O)(=O)NC(=O)N[C@H]3CC[C@H](C)CC3)cc2)C1=O [GLIMEPIRIDE], which Solubility is on record?
A: 0.0127 µM (≈ 0.00623 µg/mL)

Q: Which Solubility does the source give for CC(C)(C)c1ccc(C(O)CCCN2CCC(C(O)(c3ccccc3)c3ccccc3)CC2)cc1 (configuration not stated) [TERFENADINE] here?
A: 0.0116 µM (≈ 0.00547 µg/mL)

Q: Which Solubility does the source give for Cc1c(C)c2c(c(C)c1O)CCC(C)(COc1ccc(CC3SC(=O)NC3=O)cc1)O2 (configuration not stated) [TROGLITAZONE] here?
A: < 0.0159 µM

Q: For Cc1c(C(=O)NN2CCCCC2)nn(-c2ccc(Cl)cc2Cl)c1-c1ccc(Cl)cc1 [RIMONABANT], which Solubility is on record?
A: 0.0965 µM (≈ 0.0448 µg/mL)

Q: For CCOC(=O)C1=C(C)NC(C)=C(C(=O)OC)C1c1cccc(Cl)c1Cl (configuration not stated) [FELODIPINE], which Solubility is on record?
A: 0.276 µM (≈ 0.106 µg/mL)
